Experimental data as given in US6534524B1, “Indazole compounds and pharmaceutical compositions for inhibiting protein kinases, and methods for their use” (Agouron Pharmaceuticals, Inc., priority 1999, dated 2003).
Where “and” joins values, the source holds several entries; their conditions need not be identical. Equal entries are not always repeated. Where two headings read alike, the source gives them in different places. Marks after values point to notes of the source that are not given here.

Columns and labels:
LCK tyrosine kinase = biological target: T1, LCK tyrosine kinase (Homo sapiens, UniProt P06239, C224D/P223M); assay: LCK spectrophotometric assay; type: biochemical; conditions: Table 1; for Ki: read-out: Lck-P Ki; for inhibition at 1 µM: read-out: Lck-P % inhibition
T1 construct: starting from amino acid residue 223 to the end of the protein at residue 509; made in house; host or cells: insect cells
Description: The production of ADP from ATP that accompanies phosphoryl transfer was coupled to oxidation of NADH using phosphoenolpyruvate (PEP) and a system having pyruvate kinase (PK) and lactic dehydrogenase (LDH). The oxidation of NADH was monitored by following the decrease of absorbance at 340 nm (e340=6.22 cm^−1 mM^−1) using a Beckman DU 650 spectrophotometer. […] Ki values were determined by measuring enzyme activity in the presence of varying concentrations of test compounds. The data were analyzed using Enzyme Kinetic and Kaleidagraph software.
The spectrophotometric assay was carried out as described above for VEGF-R2, except for the following changes in concentration: LCK=60 nM, MgCl2=0 mM, poly(E4Y1)=20 mM.

CDK4/Cyclin D3 complex = CDK4/Cyclin D3 complex (Homo sapiens, UniProt P11802); assay: CDK4/Cyclin D assay ([32P]ATP, Rb fragment)
[1] = biological target: phosphorylated VEGF-R2Δ50 (FLVK-P) (Homo sapiens, UniProt P35968, DEL940-989/E990V); assay: VEGF-R2 coupled spectrophotometric assay, phosphorylated VEGF-R2Δ50 (FLVK-P)
[2] = biological target: unphosphorylated VEGF-R2Δ50 (FLVK) (Homo sapiens, UniProt P35968, DEL940-989/E990V); assay: VEGF-R2 coupled spectrophotometric assay, unphosphorylated VEGF-R2Δ50 (FLVK); conditions: for Ki: FLVK Ki, Table 1; for inhibition at 0.05 µM: read-out: FLVK % inhibition
human CHK1 (FL-CHK1) = biological target: T2, human CHK1 (FL-CHK1) (Homo sapiens, UniProt O14757); assay: CHK1 assay (coupled spectrophotometric, Syntide-2); type: biochemical; conditions: Table 1; read-out: CHK-1 Ki
T2 construct: C-terminally His-tagged full-length human CHK1 (FL-CHK1); made in house; host or cells: baculovirus/insect cell system
T2 sequence (O14757 1-476): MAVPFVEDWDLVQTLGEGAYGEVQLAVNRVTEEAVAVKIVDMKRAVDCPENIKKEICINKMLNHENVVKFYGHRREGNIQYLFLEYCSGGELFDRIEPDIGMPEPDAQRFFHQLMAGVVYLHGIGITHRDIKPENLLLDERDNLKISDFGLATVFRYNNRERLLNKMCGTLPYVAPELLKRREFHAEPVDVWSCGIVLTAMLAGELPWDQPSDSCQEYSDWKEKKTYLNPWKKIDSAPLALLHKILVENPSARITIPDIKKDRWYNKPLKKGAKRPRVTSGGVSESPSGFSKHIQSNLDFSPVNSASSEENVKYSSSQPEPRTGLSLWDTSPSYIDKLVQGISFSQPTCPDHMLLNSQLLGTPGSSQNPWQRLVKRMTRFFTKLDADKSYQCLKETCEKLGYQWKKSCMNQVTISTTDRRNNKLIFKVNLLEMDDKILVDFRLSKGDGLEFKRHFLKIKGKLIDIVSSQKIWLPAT
In short: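 Full-length C-terminally His-tagged human CHK1 expressed in baculovirus/insect cells, used at 10 nM with Syntide-2 substrate. ADP formation coupled via PK/LDH to NADH oxidation, followed as absorbance decrease at 340 nm. Ki from initial rates at varying compound concentrations.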

human FGF-R1 = human FGF-R1 (Homo sapiens, UniProt P11362, C488A/C584S/L457V); assay: FGF-R spectrophotometric assay; conditions: for inhibition at 1 µM: read-out: FGF-P % inhibition, Table 1
[3] = test system: human umbilical vein endothelial cells (HUVEC); assay: HUVEC proliferation assay (VEGF-stimulated, MTT); type: cell-based; conditions: Homo sapiens, HUVEC
[4] = Determination of inhibitor concentration in mouse plasma after intraperitoneal and oral dosing; type: in vivo
In short: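 Mice dosed intraperitoneally or orally; blood taken by ocular bleed at 0.5, 1 and 4 h and by intracardiac puncture at 7 h. Plasma extracted with ethyl acetate after internal standard and NaOH addition, analysed by HPLC or LC-MS against a mouse-plasma standard curve.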

[5] = Human liver microsome (HLM) assay; type: in vitro ADME; conditions: human liver microsomes, 5 μM test compound
In short: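 Compound metabolism in human liver microsomes measured in triplicate. Samples at 0 and 2 h centrifuged at 14000 g for 10 min and analysed by LC-MS.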

[6] = + albumin, read-out: HUVEC + albumin IC50
[7] = PO, 25 mg/kg, vehicle PEG400:H2O pH 2.3 30:70
[8] = female, PO, 25 mg/kg, vehicle PEG400:H2O pH 2.3 30:70, read-out: Cmin (7 hr conc.)
[9] = IP, 25 mg/kg, vehicle PEG400:H2O pH 2.3 60:40
[10] = PO, 50 mg/kg, vehicle PEG400:H2O pH 2.3 60:40
[11] = female, IP, 25 mg/kg, vehicle PEG400:H2O pH 2.3 60:40, read-out: Cmin (7 hr conc.)
[12] = female, PO, 50 mg/kg, vehicle PEG400:H2O pH 2.3 60:40, read-out: Cmin (7 hr conc.)
[13] = IP, 25 mg/kg, vehicle PEG400:H2O pH 2.3 30:70
[14] = PO, 50 mg/kg, vehicle PEG400:H2O pH 2.3 30:70

T1 sequence (P06239 223-509 P223M/C224D): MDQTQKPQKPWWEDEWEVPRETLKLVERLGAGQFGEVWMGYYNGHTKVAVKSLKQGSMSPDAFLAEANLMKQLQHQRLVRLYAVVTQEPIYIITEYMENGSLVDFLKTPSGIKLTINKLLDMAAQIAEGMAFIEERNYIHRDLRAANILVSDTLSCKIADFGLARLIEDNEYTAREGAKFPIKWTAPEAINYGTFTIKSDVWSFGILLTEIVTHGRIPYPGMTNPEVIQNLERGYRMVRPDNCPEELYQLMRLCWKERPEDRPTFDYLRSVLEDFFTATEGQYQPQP
Chain of unphosphorylated VEGF-R2Δ50 (FLVK) (P35968 with tags, fused parts or gaps DEL940-989/E990V limits assumed): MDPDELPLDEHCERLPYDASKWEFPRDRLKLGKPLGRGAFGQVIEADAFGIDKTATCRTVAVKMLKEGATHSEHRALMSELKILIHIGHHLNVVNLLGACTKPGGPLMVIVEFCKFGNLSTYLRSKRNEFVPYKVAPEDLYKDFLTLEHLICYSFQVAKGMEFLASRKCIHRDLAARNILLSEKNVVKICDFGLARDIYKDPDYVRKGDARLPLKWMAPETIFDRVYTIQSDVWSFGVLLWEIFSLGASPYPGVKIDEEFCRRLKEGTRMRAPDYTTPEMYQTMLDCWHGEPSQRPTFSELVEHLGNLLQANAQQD
Chain of human FGF-R1 (P11362 456-766 L457V/C488A/C584S): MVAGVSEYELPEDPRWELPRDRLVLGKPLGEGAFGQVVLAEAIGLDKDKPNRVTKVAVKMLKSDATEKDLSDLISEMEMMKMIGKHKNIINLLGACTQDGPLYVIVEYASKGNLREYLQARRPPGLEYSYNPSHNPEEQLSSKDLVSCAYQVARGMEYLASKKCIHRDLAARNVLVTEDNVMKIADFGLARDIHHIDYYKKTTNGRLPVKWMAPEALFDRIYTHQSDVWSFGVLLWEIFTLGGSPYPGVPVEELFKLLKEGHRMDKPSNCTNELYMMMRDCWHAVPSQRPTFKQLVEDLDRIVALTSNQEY
Chain of phosphorylated VEGF-R2Δ50 (FLVK-P) (P35968 with tags, fused parts or gaps DEL940-989/E990V limits assumed): as the sequence (P35968 with tags, fused parts or gaps DEL940-989/E990V limits assumed) above
Chain of CDK4/Cyclin D3 complex (P11802 whole entry, the tested form may be a part): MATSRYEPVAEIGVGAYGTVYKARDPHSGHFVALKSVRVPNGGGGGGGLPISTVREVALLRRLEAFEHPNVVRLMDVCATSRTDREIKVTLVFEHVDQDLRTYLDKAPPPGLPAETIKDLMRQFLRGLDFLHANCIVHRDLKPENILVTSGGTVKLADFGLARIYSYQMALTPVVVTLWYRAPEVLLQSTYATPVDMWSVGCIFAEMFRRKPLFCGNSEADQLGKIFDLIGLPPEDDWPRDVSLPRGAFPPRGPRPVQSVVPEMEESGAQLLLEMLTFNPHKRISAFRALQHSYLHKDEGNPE
Chain of CDK4/Cyclin D3 complex (P30281 whole entry partner, the tested form may be a part): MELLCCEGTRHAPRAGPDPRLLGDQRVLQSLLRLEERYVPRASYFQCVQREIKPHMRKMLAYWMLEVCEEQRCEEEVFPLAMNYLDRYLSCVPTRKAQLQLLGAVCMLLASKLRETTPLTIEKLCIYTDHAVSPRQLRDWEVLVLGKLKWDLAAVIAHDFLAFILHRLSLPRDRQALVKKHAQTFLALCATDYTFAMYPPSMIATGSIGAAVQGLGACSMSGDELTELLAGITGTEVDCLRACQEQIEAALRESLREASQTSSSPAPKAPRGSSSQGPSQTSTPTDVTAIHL

Structure (SMILES): Oc1cccc(Oc2ccc3c(/C=C/c4ccccc4)n[nH]c3c2)c1 [Example 9(a), 3-(E-styryl)-6-[3-hydroxyphenoxy]-1H-indazole]
- Ki (LCK tyrosine kinase): 162 nM
- Ki (CDK4/Cyclin D3 complex): 1700 nM
- Ki [1]: 16 nM
- Ki [2]: 2.4 nM
- Ki (human CHK1 (FL-CHK1)): 400 nM

Structure (SMILES): C#CCNC(=O)c1ccccc1Nc1ccc2c(/C=C/c3ccccn3)n[nH]c2c1 [Example 39(b), 6-[2-(Prop-2-ynylcarbamoyl)phenylamino]-3-E-[2-(pyridin-2-yl)ethenyl]-1H-indazole]
- inhibition at 1 µM (human FGF-R1; compound concentration 1 μM): 50%
- IC50 [3, 6]: > 10 nM
- plasma half-life (T1/2) [4, 7]: 11.8 h
- AUC(0-t) ([4]; female, PO, 25 mg/kg, vehicle PEG400:H2O pH 2.3 30:70): > 31000 ng·h/mL
- Cmax ([4]; female, PO, 25 mg/kg, vehicle PEG400:H2O pH 2.3 30:70, read-out: Cmax): > 5000 ng/mL
- concentration at 7 h [4, 8]: 3150 ng/mL
- inhibition at 1 µM (LCK tyrosine kinase; compound concentration 1 μM): 10%

Structure (SMILES): O=C(c1cccc(NC(=O)c2ccccn2)c1)c1ccc2c(/C=C/c3ccccn3)n[nH]c2c1 [Example 41(aa), 6-[3-(Pyridin-2-ylcarboxamido)benzoyl]-3-E-[2-(pyridin-2-yl)ethenyl]-1H-indazole]
- inhibition at 1 µM (human FGF-R1; compound concentration 1 μM): 37%
- IC50 [3, 6]: 5.2 nM
- IC50 ([3]; read-out: HUVEC IC50): 1 nM
- AUClast [4, 9]: 6659 ng·h/mL
- plasma half-life (T1/2) [4, 9]: 2.1 h
- AUClast [4, 10]: 289 ng·h/mL
- plasma half-life (T1/2) [4, 10]: 0.9 h
- concentration at 7 h [4, 11]: 124 ng/mL
- concentration at 7 h [4, 12]: 5 ng/mL
- inhibition at 1 µM (LCK tyrosine kinase; compound concentration 1 μM): 49%
- Ki [2]: 0.11 nM

Structure (SMILES): CCCn1nc(C)cc1C(=O)Nc1cc(C(=O)c2ccc3c(/C=C/c4ccccn4)n[nH]c3c2)ccc1C [Example 41(ii), 6-[3-((1-n-Propyl-3-methyl-1H-pyrazol-5-yl)carboxamido)-4-methylbenzoyl]-3-E-[2-(pyridin-2-yl)ethenyl]-1H-indazole]
- Ki (human FGF-R1): 11 nM
- IC50 [3, 6]: 13 nM
- AUClast [4, 7]: 7094 ng·h/mL
- Cmax [4, 7]: 1826 ng/mL
- plasma half-life (T1/2) [4, 7]: 2.3 h
- concentration at 7 h [4, 8]: 346 ng/mL
- inhibition at 1 µM (LCK tyrosine kinase; compound concentration 1 μM): 18%
- inhibition at 0.05 µM [2]: 57%

Structure (SMILES): Cc1cnccc1C(=O)Nc1cccc(C(=O)c2ccc3c(/C=C/c4ccccn4)n[nH]c3c2)c1 [Example 41(j), 6-[3-((3-Methylpyridin-4-yl)carboxamido)benzoyl]-3-E-[2-(pyridin-2-yl)ethenyl]-1H-indazole]
- inhibition at 1 µM (human FGF-R1; compound concentration 1 μM): 41%
- IC50 [3, 6]: 7.7 nM
- AUClast [4, 7]: 1476 ng·h/mL
- plasma half-life (T1/2) [4, 7]: 1.3 h
- concentration at 7 h [4, 8]: 17 ng/mL
- inhibition at 1 µM (LCK tyrosine kinase; compound concentration 1 μM): 16%
- inhibition at 0.05 µM [2]: 98%

Structure (SMILES): O=C(c1cccc(NC(=O)C2C[C@H]2c2ccccc2)c1)c1ccc2c(/C=C/c3ccccn3)n[nH]c2c1 (stereo partly drawn) [Example 41(l), 6-[3-((2-RS-trans-Phenylcyclopropyl)carboxamido)benzoyl]-3-E-[2-(pyridin-2-yl)ethenyl]-1H-indazole]
- FGF-P % inhibition (human FGF-R1; Table 1, compound concentration 1 μM, 1 µM): 66%
- inhibition at 1 µM (human FGF-R1; compound concentration 1 μM): 76%
- AUClast [4, 13]: 1854 ng·h/mL
- Cmax [4, 13]: 623 ng/mL
- plasma half-life (T1/2) [4, 13]: 3.1 h
- AUClast [4, 14]: 212 ng·h/mL
- Cmax [4, 14]: 104 ng/mL
- plasma half-life (T1/2) [4, 14]: 0.5 h
- concentration at 7 h ([4]; female, IP, 25 mg/kg, vehicle PEG400:H2O pH 2.3 30:70, read-out: Cmin (7 hr conc.)): 102 ng/mL
- concentration at 7 h ([4]; female, PO, 50 mg/kg, vehicle PEG400:H2O pH 2.3 30:70, read-out: Cmin (7 hr conc.)): 0 ng/mL
- Lck-P % inhibition (LCK tyrosine kinase; compound concentration 1 μM, 1 µM): 38%* and 63%*
- Ki [2]: 0.04 nM and 0.24 nM

Structure (SMILES): CCn1nc(C)cc1C(=O)Nc1cc(C(=O)c2ccc3c(/C=C/c4ccccn4)n[nH]c3c2)c(C)cc1C [Example 41(ll), 6-[2,4-Dimethyl-5-((1-Ethyl-3-methyl-1H-pyrazol-5-yl)carboxamido)benzoyl]-3-E-[2-(pyridin-2-yl)ethenyl]-1H-indazole]
- inhibition at 1 µM (human FGF-R1; compound concentration 1 μM): 91%
- IC50 [3, 6]: 23 nM
- inhibition at 1 µM (LCK tyrosine kinase; compound concentration 1 μM): 14%
- inhibition at 0.05 µM [2]: 95%

Structure (SMILES): O=C(Nc1cccc(C(=O)c2ccc3c(/C=C/c4ccccn4)n[nH]c3c2)c1)c1ccccc1 [Example 42(a), 6-(3-Benzamidobenzoyl)-3-E-[2-(pyridin-2-yl)ethenyl]-1H-indazole]
- Ki (human FGF-R1): 65 nM
- AUClast [4, 9]: 19899 ng·h/mL
- plasma half-life (T1/2) [4, 9]: 5.0 h
- AUClast [4, 10]: 8384 ng·h/mL
- plasma half-life (T1/2) [4, 10]: 2.0 h
- concentration at 7 h [4, 11]: 1640 ng/mL
- concentration at 7 h [4, 12]: 341 ng/mL
- % remain (HLM, 2 h) [5]: 92%
- Ki (LCK tyrosine kinase): 53 nM
- Ki [2]: 0.046 nM

Structure (SMILES): O=C(Nc1cc(Nc2ccc3c(/C=C/c4ccccc4)n[nH]c3c2)ccc1F)c1ccccc1 [Example 47, 6-[N-(3-Benzamido-4-fluorophenyl)amino]-3-E-styryl-1H-indazole]
- inhibition at 1 µM (human FGF-R1; compound concentration 1 μM): 88%
- AUClast [4, 13]: 236 ng·h/mL
- Cmax [4, 13]: 39 ng/mL
- plasma half-life (T1/2) [4, 13]: 19.9 h
- AUClast [4, 14]: 327 ng·h/mL
- Cmax [4, 14]: 84 ng/mL
- plasma half-life (T1/2) [4, 14]: 3.4 h
- inhibition at 1 µM (LCK tyrosine kinase; compound concentration 1 μM): 50%
- Ki [2]: 0.25 nM

Structure (SMILES): Cc1cc(C(=O)Nc2cccc(Oc3ccc4c(/C=C/c5ccccn5)n[nH]c4c3)c2)n(C)n1 [Example 57, 6-[3-((1,3-Dimethyl-1H-pyrazol-5-yl)carboxamido)phenoxy]-3-E-[2-(pyridin-2-yl)ethenyl]-1H-indazole]
- inhibition at 1 µM (human FGF-R1; compound concentration 1 μM): 89%
- inhibition at 1 µM (LCK tyrosine kinase; compound concentration 1 μM): 30%
- inhibition at 0.05 µM [2]: 100%

Structure (SMILES): CCn1nc(C)cc1C(=O)Nc1cc(Oc2ccc3c(/C=C/c4ncc[nH]4)n[nH]c3c2)ccc1C [Example 58]
- inhibition at 1 µM (human FGF-R1; compound concentration 1 μM): 98%
- inhibition at 1 µM (LCK tyrosine kinase; compound concentration 1 μM): 19%
- inhibition at 0.05 µM [2]: 98%
